Data published in article PMC9519446, “Discovery of an Orally Active Benzoxaborole Prodrug Effective in the Treatment of Chagas Disease in Non-human Primates” (Nature microbiology, 2022).
Values joined by “and” are separate entries in the source; they are usually repeats but may differ in a detail not shown here. Equal values may be shown once.

Legend:
[1] = Plasma protein binding (cyno); assay type: in vitro ADME
[2] = NHP health screening: serum chemistry; assay type: in vivo, rhesus macaques (Macaca mulatta)
Experimental: Under light-anesthesia/sedation, peripheral blood samples were collected from each animal prior to treatment and at 7 time points following. Blood analysis (CBC and serum chemistry assays) and physical exams to evaluate the health of the study animals were performed on each animal prior to the beginning of the study and also at three time points during the treatment protocol (see Supplementary data).

[3] = End of study bleed, Mean of treated F animals
[4] = End of study bleed, individual treated animals
[5] = Mid-dosing bleed, Mean of treated females
[6] = Mid-dosing bleed, treated animals, individual values

Cc1c(C(=O)N[C@H](C(=O)OCC2CCOCC2)C(C)C)ccc2c1B(O)OC2 [AN15368]
Funbound (cyno) [1]: 21%
Agap [2, 3]: 15 Meq/L
Alb [2, 3]: 3.916 G/Dl
Alp [2, 3]: 92.2632 Iu/L
Alt [2, 3]: 53.7368 Iu/L
Ast [2, 3]: 63.5789 Iu/L
Bun [2, 3]: 17.7895 Mg/Dl
Ca [2, 3]: 9.232 Mg/Dl
Chol [2, 3]: 138.105 mg/dL
Ck [2, 3]: 2260.42 Iu/L
Cl [2, 3]: 109.526 Meq/L
Crea [2, 3]: 0.7289 Mg/Dl
Fe [2, 3]: 111.895 µg/dL
Ggt [2, 3]: 45 Iu/L
Glob [2, 3]: 2.684 G/Dl
Gluc [2, 3]: 62.2105 Mg/Dl
K [2, 3]: 3.584 Meq/L
Ldh [2, 3]: 581.684 Iu/L
Na [2, 3]: 147.474 Meq/L
Osmo [2, 3]: 284.105 Mosm/Kg
Phos [2, 3]: 3.284 Mg/Dl
Tbil [2, 3]: 0.2074 Mg/Dl
Tco2 [2, 3]: 26.6842 Meq/L
Tibc [2, 3]: 363.263 µg/dL
Tp [2, 3]: 6.589 G/Dl
Trig [2, 3]: 78.7895 Mg/Dl
Agap [2, 4]: 18 Meq/L and 14 Meq/L and 15 Meq/L and 13 Meq/L and 17 Meq/L and 16 Meq/L
Alb [2, 4]: 4.2 G/Dl and 3.6 G/Dl and 3.9 G/Dl and 3.5 G/Dl and 4 G/Dl and 3.3 G/Dl and 2.9 G/Dl and 4.4 G/Dl and 3.8 G/Dl and 4.7 G/Dl and 4.3 G/Dl
Alp [2, 4]: 132 Iu/L and 94 Iu/L and 68 Iu/L and 54 Iu/L and 70 Iu/L and 117 Iu/L and 84 Iu/L and 65 Iu/L and 131 Iu/L and 60 Iu/L and 92 Iu/L and 150 Iu/L and 113 Iu/L and 97 Iu/L and 63 Iu/L and 80 Iu/L and 71 Iu/L and 89 Iu/L and 76 Iu/L
Alt [2, 4]: 39 Iu/L and 36 Iu/L and 27 Iu/L and 30 Iu/L and 87 Iu/L and 53 Iu/L and 95 Iu/L and 29 Iu/L and 76 Iu/L and 195 Iu/L and 45 Iu/L and 25 Iu/L and 70 Iu/L and 69 Iu/L and 18 Iu/L and 22 Iu/L
Ast [2, 4]: 34 Iu/L and 33 Iu/L and 18 Iu/L and 23 Iu/L and 28 Iu/L and 35 Iu/L and 32 Iu/L and 29 Iu/L and 21 Iu/L and 199 Iu/L and 392 Iu/L and 24 Iu/L and 25 Iu/L and 203 Iu/L and 16 Iu/L
Bun [2, 4]: 19 Mg/Dl and 14 Mg/Dl and 15 Mg/Dl and 17 Mg/Dl and 18 Mg/Dl and 16 Mg/Dl and 13 Mg/Dl and 38 Mg/Dl and 29 Mg/Dl and 11 Mg/Dl
Ca [2, 4]: 9.6 Mg/Dl and 9.1 Mg/Dl and 8.7 Mg/Dl and 9.3 Mg/Dl and 9.5 Mg/Dl and 9.2 Mg/Dl and 8.8 Mg/Dl and 8.5 Mg/Dl and 8.2 Mg/Dl and 9.7 Mg/Dl and 9.4 Mg/Dl and 10.1 Mg/Dl
Chol [2, 4]: 127 mg/dL and 152 mg/dL and 153 mg/dL and 132 mg/dL and 115 mg/dL and 168 mg/dL and 197 mg/dL and 162 mg/dL and 129 mg/dL and 141 mg/dL and 101 mg/dL and 85 mg/dL and 158 mg/dL and 126 mg/dL and 118 mg/dL and 151 mg/dL and 136 mg/dL and 110 mg/dL
Ck [2, 4]: 224 Iu/L and 407 Iu/L and 173 Iu/L and 274 Iu/L and 432 Iu/L and 485 Iu/L and 1737 Iu/L and 198 Iu/L and 506 Iu/L and 146 Iu/L and 14833 Iu/L and 15016 Iu/L and 403 Iu/L and 468 Iu/L and 205 Iu/L and 374 Iu/L and 6914 Iu/L and 290 Iu/L and 124 Iu/L and 171 Iu/L
Cl [2, 4]: 111 Meq/L and 110 Meq/L and 109 Meq/L and 107 Meq/L and 104 Meq/L and 108 Meq/L and 112 Meq/L
Crea [2, 4]: 0.7 Mg/Dl and 0.59 Mg/Dl and 0.62 Mg/Dl and 0.68 Mg/Dl and 0.76 Mg/Dl and 0.63 Mg/Dl and 0.77 Mg/Dl and 0.78 Mg/Dl and 0.71 Mg/Dl and 0.75 Mg/Dl and 1.07 Mg/Dl and 0.83 Mg/Dl and 0.58 Mg/Dl and 0.57 Mg/Dl and 0.74 Mg/Dl and 0.85 Mg/Dl and 0.66 Mg/Dl
Fe [2, 4]: 161 µg/dL and 147 µg/dL and 112 µg/dL and 151 µg/dL and 121 µg/dL and 108 µg/dL and 127 µg/dL and 95 µg/dL and 137 µg/dL and 110 µg/dL and 23 µg/dL and 34 µg/dL and 87 µg/dL and 133 µg/dL and 143 µg/dL and 32 µg/dL and 183 µg/dL and 103 µg/dL and 93 µg/dL
Ggt [2, 4]: 49 Iu/L and 44 Iu/L and 32 Iu/L and 38 Iu/L and 45 Iu/L and 53 Iu/L and 43 Iu/L and 48 Iu/L and 60 Iu/L and 51 Iu/L and 47 Iu/L and 30 Iu/L and 41 Iu/L and 67 Iu/L
Glob [2, 4]: 2.4 G/Dl and 3.1 G/Dl and 2.5 G/Dl and 2.6 G/Dl and 2.8 G/Dl and 2.9 G/Dl and 2.7 G/Dl and 3.3 G/Dl and 3.2 G/Dl and 2.3 G/Dl and 2.2 G/Dl
Gluc [2, 4]: 77 Mg/Dl and 54 Mg/Dl and 69 Mg/Dl and 48 Mg/Dl and 57 Mg/Dl and 50 Mg/Dl and 62 Mg/Dl and 56 Mg/Dl and 65 Mg/Dl and 75 Mg/Dl and 83 Mg/Dl and 64 Mg/Dl and 58 Mg/Dl and 73 Mg/Dl and 55 Mg/Dl and 63 Mg/Dl
K [2, 4]: 3.5 Meq/L and 4 Meq/L and 3.4 Meq/L and 3.3 Meq/L and 3.6 Meq/L and 3.7 Meq/L and 3.9 Meq/L and 2.9 Meq/L and 3.8 Meq/L and 4.1 Meq/L
Ldh [2, 4]: 508 Iu/L and 636 Iu/L and 140 Iu/L and 492 Iu/L and 348 Iu/L and 387 Iu/L and 493 Iu/L and 399 Iu/L and 281 Iu/L and 157 Iu/L and 1914 Iu/L and 2200 Iu/L and 274 Iu/L and 247 Iu/L and 194 Iu/L and 1688 Iu/L and 241 Iu/L and 292 Iu/L and 122 Iu/L
Na [2, 4]: 148 Meq/L and 145 Meq/L and 149 Meq/L and 146 Meq/L and 147 Meq/L
Osmo [2, 4]: 286 Mosm/Kg and 278 Mosm/Kg and 284 Mosm/Kg and 285 Mosm/Kg and 280 Mosm/Kg and 291 Mosm/Kg and 283 Mosm/Kg and 282 Mosm/Kg
Phos [2, 4]: 3.1 Mg/Dl and 3.5 Mg/Dl and 3.7 Mg/Dl and 2.5 Mg/Dl and 4.3 Mg/Dl and 4.5 Mg/Dl and 4.2 Mg/Dl and 3 Mg/Dl and 2.4 Mg/Dl and 2.3 Mg/Dl and 3.4 Mg/Dl and 3.2 Mg/Dl and 2.7 Mg/Dl and 3.3 Mg/Dl and 4.8 Mg/Dl and 4 Mg/Dl
Tbil [2, 4]: 0.17 Mg/Dl and 0.1 Mg/Dl and 0.12 Mg/Dl and 0.16 Mg/Dl and 0.45 Mg/Dl and 0.41 Mg/Dl and 0.15 Mg/Dl and 0.14 Mg/Dl and 0.84 Mg/Dl and 0.19 Mg/Dl
Tco2 [2, 4]: 23 Meq/L and 25 Meq/L and 26 Meq/L and 27 Meq/L and 30 Meq/L and 31 Meq/L and 28 Meq/L and 29 Meq/L and 24 Meq/L
Tibc [2, 4]: 337 µg/dL and 401 µg/dL and 353 µg/dL and 346 µg/dL and 309 µg/dL and 409 µg/dL and 351 µg/dL and 396 µg/dL and 388 µg/dL and 371 µg/dL and 299 µg/dL and 267 µg/dL and 357 µg/dL and 410 µg/dL and 392 µg/dL and 358 µg/dL and 376 µg/dL and 424 µg/dL and 347 µg/dL and 320 µg/dL
Tp [2, 4]: 6.5 G/Dl and 6.7 G/Dl and 6.4 G/Dl and 6.8 G/Dl and 6.3 G/Dl and 6.9 G/Dl and 6.6 G/Dl and 6 G/Dl and 6.1 G/Dl and 6.2 G/Dl
Trig [2, 4]: 66 Mg/Dl and 105 Mg/Dl and 88 Mg/Dl and 84 Mg/Dl and 101 Mg/Dl and 120 Mg/Dl and 124 Mg/Dl and 77 Mg/Dl and 61 Mg/Dl and 137 Mg/Dl and 20 Mg/Dl and 24 Mg/Dl and 50 Mg/Dl and 111 Mg/Dl and 31 Mg/Dl and 141 Mg/Dl and 27 Mg/Dl
Agap [2, 5]: 15.1667 Meq/L
Alb [2, 5]: 3.839 G/Dl
Alp [2, 5]: 98.7222 Iu/L
Alt [2, 5]: 44.8889 Iu/L
Ast [2, 5]: 27.4444 Iu/L
Bun [2, 5]: 14.2778 Mg/Dl
Ca [2, 5]: 9.439 Mg/Dl
Chol [2, 5]: 138.5 mg/dL
Ck [2, 5]: 456.778 Iu/L
Cl [2, 5]: 110.167 Meq/L
Crea [2, 5]: 0.7289 Mg/Dl
Fe [2, 5]: 141.278 µg/dL
Ggt [2, 5]: 49.6667 Iu/L
Glob [2, 5]: 3.072 G/Dl
Gluc [2, 5]: 63.0556 Mg/Dl
K [2, 5]: 3.633 Meq/L
Ldh [2, 5]: 249.389 Iu/L
Na [2, 5]: 148.5 Meq/L
Osmo [2, 5]: 284.778 Mosm/Kg
Phos [2, 5]: 2.8 Mg/Dl
Tbil [2, 5]: 0.1683 Mg/Dl
Tco2 [2, 5]: 26.8889 Meq/L
Tibc [2, 5]: 368.167 µg/dL
Tp [2, 5]: 6.906 G/Dl
Trig [2, 5]: 81.6111 Mg/Dl
Agap [2, 6]: 16 Meq/L and 17 Meq/L and 13 Meq/L and 15 Meq/L and 14 Meq/L
Alb [2, 6]: 3.9 G/Dl and 3.6 G/Dl and 3.8 G/Dl and 3.4 G/Dl and 3.5 G/Dl and 4.3 G/Dl and 4.1 G/Dl and 3.7 G/Dl and 4 G/Dl
Alp [2, 6]: 114 Iu/L and 109 Iu/L and 79 Iu/L and 146 Iu/L and 91 Iu/L and 93 Iu/L and 84 Iu/L and 108 Iu/L and 131 Iu/L and 72 Iu/L and 88 Iu/L and 136 Iu/L and 116 Iu/L and 65 Iu/L and 75 Iu/L and 90 Iu/L
Alt [2, 6]: 46 Iu/L and 63 Iu/L and 42 Iu/L and 89 Iu/L and 50 Iu/L and 33 Iu/L and 67 Iu/L and 24 Iu/L and 27 Iu/L and 69 Iu/L and 29 Iu/L and 22 Iu/L and 35 Iu/L and 40 Iu/L and 55 Iu/L and 44 Iu/L and 56 Iu/L
Ast [2, 6]: 40 Iu/L and 24 Iu/L and 28 Iu/L and 29 Iu/L and 25 Iu/L and 26 Iu/L and 33 Iu/L and 34 Iu/L and 20 Iu/L and 27 Iu/L and 15 Iu/L and 30 Iu/L and 23 Iu/L
Bun [2, 6]: 15 Mg/Dl and 16 Mg/Dl and 13 Mg/Dl and 12 Mg/Dl and 14 Mg/Dl and 11 Mg/Dl and 20 Mg/Dl
Ca [2, 6]: 9.7 Mg/Dl and 9.6 Mg/Dl and 9.1 Mg/Dl and 9.3 Mg/Dl and 9 Mg/Dl and 9.2 Mg/Dl and 10 Mg/Dl and 9.8 Mg/Dl and 9.5 Mg/Dl
Chol [2, 6]: 180 mg/dL and 175 mg/dL and 134 mg/dL and 115 mg/dL and 124 mg/dL and 127 mg/dL and 158 mg/dL and 141 mg/dL and 125 mg/dL and 122 mg/dL and 138 mg/dL and 154 mg/dL and 140 mg/dL and 113 mg/dL and 133 mg/dL and 148 mg/dL and 151 mg/dL and 119 mg/dL
Ck [2, 6]: 427 Iu/L and 338 Iu/L and 199 Iu/L and 479 Iu/L and 314 Iu/L and 233 Iu/L and 738 Iu/L and 1619 Iu/L and 353 Iu/L and 416 Iu/L and 382 Iu/L and 210 Iu/L and 648 Iu/L and 548 Iu/L and 237 Iu/L and 332 Iu/L and 197 Iu/L and 552 Iu/L and 206 Iu/L
Cl [2, 6]: 110 Meq/L and 109 Meq/L and 111 Meq/L and 108 Meq/L and 107 Meq/L and 113 Meq/L and 112 Meq/L
Crea [2, 6]: 0.56 Mg/Dl and 0.91 Mg/Dl and 0.71 Mg/Dl and 0.69 Mg/Dl and 0.85 Mg/Dl and 0.97 Mg/Dl and 0.62 Mg/Dl and 0.77 Mg/Dl and 0.78 Mg/Dl and 0.74 Mg/Dl and 0.76 Mg/Dl and 0.58 Mg/Dl and 0.65 Mg/Dl and 0.64 Mg/Dl and 0.68 Mg/Dl
Fe [2, 6]: 185 µg/dL and 145 µg/dL and 129 µg/dL and 168 µg/dL and 126 µg/dL and 124 µg/dL and 150 µg/dL and 181 µg/dL and 159 µg/dL and 113 µg/dL and 170 µg/dL and 84 µg/dL and 111 µg/dL and 169 µg/dL and 125 µg/dL and 154 µg/dL and 155 µg/dL
Ggt [2, 6]: 46 Iu/L and 64 Iu/L and 42 Iu/L and 53 Iu/L and 58 Iu/L and 67 Iu/L and 48 Iu/L and 30 Iu/L and 52 Iu/L and 31 Iu/L and 40 Iu/L and 35 Iu/L and 82 Iu/L and 37 Iu/L and 50 Iu/L and 65 Iu/L
